Experimental data reported in patent publication US5519028A, “Antiviral preparations” (priority 1992, dated 1996).

Columns and labels:
Format in all cases: cell-based, human
TNF-α = TNF-α production by monocytes of normal donors; details: 1000 U/ml, 48 hours
Description: (§1) The effects of flavopereirine on the production of primary (IL-1β and TNF-α) and secondary (IL-6) cytokines by monocytes was also tested. The adhesive monocytes used were taken from the blood of two types of donors:
(§2) Normal donors--voluntary blood donors who attended the blood bank of the Pitie-Salpetriere Hospital, Paris, France; and
(§3) Product H was not used in these experiments at a rate of more than 20 μg/ml water, since above this rate, net toxicity could have been produced.

IL-1β = IL-1β production by monocytes of normal donors; details: 1000 U/ml, 48 hours; except donor #10
Description: as §1, §2, §3

interleukin-6 = assay: IL-6 production by monocytes of HIV-positive donors
Description: as §1
HIV-positive donors from medical consultations. These individuals were in the early stages of HIV infection and, at the moment of taking the blood, were not undergoing any treatment. The risk factors involved were intravenous drug abuse for six of the donors, sexual transmission for three and blood transfusion (in Zaire) for one patient. No correlation was found between the risk factors and the results of the experiments.
The response of the monocytes taken from the various HIV-positive donors was tested in terms of spontaneous response. The quantities of cells received were low (the donors were not affected by cytapheresy), and the experiments were therefore limited by the number of cells available.
Interleukin-4 was used at the same time as flavopereirine H, since it has been shown prior to these experiments that this cytokine blocks the spontaneous production of interleukin-6 in certain HIV-positive patients.
In five cases, […] was used for comparison, since this, too, blocks the production of IL-6 in normal monocytes stimulated by LPS.

## interferon: stimulation of monocytes over a period of 48 hours with interferon (1000 U/ml) [reference compound]
TNF-α
  production of primary cytokines (TNF-α): did not cause any production of primary cytokines
IL-1β
  production of primary cytokines (IL-1β): did not cause any production of primary cytokines, except in donor #10 in 1L-1β

## Interleukin-9: blocks the production of IL-6 in normal monocytes stimulated by LPS
interleukin-6; combined with interleukin-4, five cases
  compound effect with interleukin-4 on IL-6 production: never has a compound effect to that of interleukin-4
interleukin-6; five cases
  maximum inhibition of spontaneous production of IL-6: ≤ 50%

B1: Interleukin-4: cytokine that blocks the spontaneous production of interleukin-6 in certain HIV-positive patients (protein, UniProt P05112 25-153, looked up)
Interleukin-4: HKCDITLQEIIKTLNSLTEQKTLCTELTVTDIFAASKNTTEKETFCRAATVLRQFYSHHEKDTRCLGATAQQFHRHKQLIRFLKRLDRNLWGLAGLNSCPVKEANQSTLENFLERLKTIMREKYSKCSS
interleukin-6; alone, never total, p<0.05
  inhibition of production of IL-6: inhibited the production of IL-6, but this inhibition was never total
